In patent US20050025758A1, “Method and compositions for treatment of insulin-dependant diabetes mellitus” (priority 1996, published 2005):
Marks after values point to notes of the source that are not given here.

Assays:
[1] = system: at-risk first-degree relatives with immune markers of IDDM; conditions: intranasal
Excerpt: A clinical trial involves administration of intranasal insulin to at-risk but otherwise healthy first-degree relatives with immune markers of IDDM, including circulating antibodies and T cells reactive with islet autoantigens.
This trial examines the effect of intranasal insulin on the surrogate immune markers of IDDM. The design is randomized, double-blind and placebo-controlled, with a crossover at six months. The placebo is the carrier solution normally used for insulin. […] Treatment is administered daily for 10 consecutive days, then for two consecutive days weekly. After six months, treatment is crossed over (from insulin to placebo, or vice versa).
The administration dose of insulin per nostril is approximately 200 μl of the commercial 4 mg/ml solution. The placebo is the carrier solution in which the insulin is normally dissolved.

female NOD mice [2] = assay: Aerosol treatment and diabetes assessment (blood glucose >11 mM); assay type: in vivo, mouse; conditions: aerosol for 10 consecutive days and then weekly, started at 49 days of age (insulitis well-established)
[3] = system: splenocytes from aerosol-treated mice; assay: Proliferative responses of splenocytes from aerosol-treated mice ([3H]-thymidine uptake); assay type: cell-based, mouse
Experimental: (§1) Spleen cells from individual normoglycemic mice were treated with a red cell lysis buffer, resuspended and incubated in quadruplicate at 2×10^5/200 μl of serum-free HL-1 medium (Hycor, Irvine, Calif.) containing […] 2-mercaptoethanol, in round-bottom wells with the indicated concentrations of antigen. After 3 days at 37° C. in 5% v/v CO2/air, 100 μl aliquots from each replicate supernatant were collected and stored at −70° C. for cytokine assays; the cells were then pulsed with 3H-thymidine, harvested 16 hours later and counted on a Topcount™ micro-scintillation counter (Packard, Meriden, Conn.). Insulin was recombinant human (Humulin R, Eli Lilly), is used for aerosol treatments. Insulin B-chain peptide corresponding to amino acids 9-23 of mouse insulin II (Peptide Express, Fort Collins, Colo.) was more than 90% pure by HPLC analysis. GAD65 was the recombinant human form expressed with a C-terminal hexahistidine in a baculovirus system and purified by Ni^2+ chelation) affinity chromatography. It was resolved as a single band in SDS-PAGE and was endotoxin-free by the quantitative Limulus lysate assay (BioWhittaker, Walkersville, Md.).
Splenocytes from three mice per group were assayed in quadruplicate in HL-1 serum-free medium. Statistical comparisons (Mann-Whitney U tests) were between the twelve results for each group.

[4] = system: splenocytes from aerosol-treated mice; assay: Cytokine secretion by splenocytes from aerosol-treated mice (ELISA); assay type: cell-based; conditions: splenocytes with 40 μg/ml mouse insulin II B chain peptide (a 9-23), three days incubation; for IL-4 secretion / IL-10 secretion: lower limit of detection 16 pg/ml
Experimental: as §1
IL-2, -4, -10 and IFN-γ were measured by ELISAs with monoclonal antibody pairs (Pharmingen); the lower limits of detection were 62, 16, 16 and 55 pg/ml, respectively. TGF-β1 was measured with an ELISA kit (Promega) with a lower limit of detection of 16 pg/ml.
Supernatants from replicate culture wells (Table 2) were sampled alter three days incubation and assayed for cytokines.

female NOD mice [5] = assay: Histology: insulitis score and salivary gland infiltration; assay type: in vivo, mouse; conditions: for Insulitis score: mean ± SD, scale 0-4, aerosol 10 consecutive days then weekly from 28 days of age, five non-diabetic mice per group at 105 days of age
Experimental: Mice were killed by CO2 inhalation and the pancreas and salivary glands immediately removed into Bouin's fixative and embedded in paraffin. The insulitis score, a measure of the severity of islet infiltration was determined blindly by two independent investigators by grading and then averaging a minimum of 15 separate islets in serial 6 μm pancreas sections stained with haematoxylin and eosin. The grading scale was: 0, no filtration, islet intact; 1, <10 peri-islet lymphoid cells, islet intact; 2, 10-20 peri-and intra-islet lymphoid cells, islet intact; 3, >20 peri- and intra-islet lymphoid cells, <50% of islet replaced or destroyed; 4, massive lymphoid infiltrate with >50% of islet replaced or destroyed. Infiltration of the salivary glands was graded by the number of lymphoid cells in clusters: 0, no cells; 1, <10 cells; 2, 10-50 cells; 3, >50 cells.
Mice (32/group) were given either aerosol insulin or ovalbumin for 10 consecutive days and then weekly from 28 days of age. At 105 days of age, five non-diabetic mice from each group were killed for pancreas histology. The insulitis score is expressed as mean ±SD. • 1.

NOD female mice = assay: Intranasal insulin, proinsulin or proinsulin peptide 24-36, diabetes in NOD mice; assay type: in vivo, mouse; conditions: for onset and incidence of diabetes: single intranasal dose at either 28 or 56 days of age, compared to control proteins ovalbumin or hen egg lysozyme; for effectiveness on a comparative dose basis: single intranasal dose, NOD female mice
Experimental: Intranasal insulin (FIG. 1), proinsulin (FIG. 2) or proinsulin peptide 24-36 (FIG. 3). Commercially available insulin at 4 mg/ml, or proinsuling or proinsulin peptide 24-36 at 1-4 mg/ml in either insulin carrier solution or mouse tonicity—phosphate buffered saline, was applied in a volume of 10-20 μl to the nostrils of unanaesthetised, restrained NOD female mice at either 28 or 56 days of age.

male NOD mice = assay: Adoptive transfer of diabetes (co-transfer of splenocytes); assay type: in vivo, mouse
female NOD mice [6] = assay: Aerosol treatment and diabetes assessment (blood glucose >11 mM); assay type: in vivo, mouse; conditions: for Diabetes frequency: 32 mice/group, aerosol 10 consecutive days then weekly from 28 days of age, at 105 days of age; for diabetes incidence at 156 days of age (median) / diabetes incidence at 240 days of age (median): aerosol for 3 or 10 consecutive days and then weekly from 28 days of age, five separate experiments; for diabetes incidence at 240 days of age (median): p=0.005; for incidence of diabetes by 240 days of age: single aerosol treatment at 28 days of age, female NOD mice
Experimental: Semi-sealed boxes of eight female NOD mice were each aerosolized by connection to a standard, patient electric pump ([…] Aerosol MKV, Anaesthetic Supplies, Sydney, Australia) and Aeroflo nebulizer (Waite & Co., Sydney). Recombinant human insulin (Humulin R, Eli Lilly) or control ovalbumin protein, at 4 mg/ml, was delivered over 10 min. at an air flow rate of 6 litres/min. in a rated droplet size of <5.8 μm, to groups of 24-32 mice. All treatments were given between 0900 and 1100 hours. Protocols and mouse care were approved and supervised by the institutional Animal Ethic Committee. Retro-orbital venous blood was sampled at least every 28 days from 100 days of age and mice considered to be diabetic if their blood glucose, confirmed by a repeat test, was >11 mM. Glucose was measured with BM-Test Glycemic® strips and a Reflolux® II meter (Boehringer-Mannheim), on a drop of blood aspirated via a glass capillary tube from the retro-orbital venous plexus of unanesthetised mice. Aerosol human insulin or ovalbumin were administered in different schedules to female NOD mice from 28 days of age, the earliest time at which insulitis is detectable in the colony of mice, and their incidence of diabetes and severity of insulitis subsequently measured.

[7] = humans, in the absence of absorption-promoting agents; cited from earlier work
insulin antibodies = assay: Insulin antibodies in serum, 125I-insulin immunoprecipitation assay; assay type: in vivo, mouse; conditions: sera n=12/group, aerosol-treated mice aged 70-105 days
Experimental: To detect insulin antibodies, ^125lablelled human insulin (approx. 100,000 cpm: specific activity 120 μCi/μg) was incubated with or without excess unlabelled insulin (10 μg/ml) in phosphate-buffered saline containing a mixture of protease inhibitors and serial log dilutions of mouse serum, for 5 days at 4° C. Complexes were then precipitated with rabbit anti-mouse globulin anti-serum, washed and counted in a gamma counter. Positive control sera (guinea pig anti-porcine insulin serum, human IDDM sera) maximally precipitated 37-54% of the total radioactivity. Non-specific binding, in the presence of excess unlabelled insulin, was ≦3.3%.
Insulin antibodies were measured by a standard immunoprecipitation assay with sera (n=12/group) from insulin- and ovalbumin-treated mice aged 70-105 days. […] Defective suppressor T-cell function has been postulated to shift the balance towards Th1 in IDDM (11). It seems unlikely that the reduced T-cell proliferative response to GAD could reflect ‘bystander’ suppression due to the secretion of the Th2 cytokines IL4 and IL-10 (8) by insulin aerosol-induced regulatory cells because, apart from an absence of added insulin in the cultures with GAD, responses to conA and anti-CD3 were not impaired. A direct explanation is that tile reduced response to GAD reflects the protective effect of aerosol insulin on insulitis and β-cell destruction. […]

NOD mouse = conditions: oral, 1 mg twice weekly; cited from earlier work
[8] = additive: Anti-CD3 antibody (10 μg/ml)
[9] = additive: Concanavalin A (5 μg/ml)
[10] = additive: Human GAD65 (20 μg/ml)
[11] = additive: Human insulin (40 μg/ml)
[12] = additive: Mouse insulin II B-chain (a 9-23) (40 μg/ml)

Substance	diabetes incidence at 156 days (female NOD mice [2]) [%]	[3H]-thymidine uptake (cpm, mean ± SD) [3, 8] [cpm]	[3H]-thymidine uptake (cpm, mean ± SD) [3, 9] [cpm]	[3H]-thymidine uptake (cpm, mean ± SD) [3, 10]	[3H]-thymidine uptake (cpm, mean ± SD) [3, 11] [cpm]	[3H]-thymidine uptake (cpm, mean ± SD) [3, 12]	[3H]-thymidine uptake (cpm, mean ± SD) ([3]; additive: None)	IFN-γ secretion [4] [pg/mL]	IL-2 secretion [4] [pg/mL]	TGF-β secretion [4]	IL-4 secretion [4]	IL-10 secretion [4]	Insulitis score (female NOD mice [5])	onset and incidence of diabetes (NOD female mice)	Diabetes frequency (female NOD mice [6])	diabetes incidence at 156 days of age (median) (female NOD mice [6]) [%]	diabetes incidence at 240 days of age (median) (female NOD mice [6]) [%]	incidence of diabetes by 240 days of age (female NOD mice [6]) [%]	Precipitation of 125I-insulin radioactivity by antibodies in sera (mean precipitated ± SD) (insulin antibodies) [%]	effectiveness on a comparative dose basis (NOD female mice)	also measured
Recombinant human insulin	25	2221 ± 533	3357 ± 812	424 ± 165^c cpm	134 ± 27	169 ± 80^b cpm	157 ± 28^a cpm	368 ± 71	200 ± 15	293 ± 131	36 ± 6 pg/mL	222 ± 149 pg/mL	1.2 ± 0.98^1	significantly delayed the onset and decreased the incidence of diabetes	2/32 (6.3%)^2	23	49	75	12.7±3.6		side effects ([1]; 36 high-risk subjects aged 4-30): No significant side effects; mucosal irritation ([1]; human subjects): only been rare and then minor and transient; Infiltration of the salivary glands by lymphoid cells (sialitis) (female NOD mice [5]; NOD mice, aerosol treatment): unaffected; Diabetes incidence after transfer decreased (male NOD mice; 1.4×10^5 γδ T cells from aerosol-treated mice co-injected with 2×10^7 spleen cells from diabetic mice, for at least 70 days): 50%; Diabetes incidence suppressed after adoptive transfer (male NOD mice; co-injection of splenocytes or nylon wool-non-adherent splenocytes from aerosol-treated mice with 2×10^7 diabetic spleen cells, six separate experiments): ≥ 75%; clinical complications or abnormalities at autopsy (female NOD mice [6]; NOD mice treated with aerosol or intranasal insulin): no clinical complications, or abnormalities at autopsy; systemic uptake from the naso-pharyngeal mucosa [7]: insignificant
ovalbumin [control ovalbumin protein, at 4 mg/ml, delivered as aerosol]	58	2643 ± 1126	2960 ± 494	1381 ± 650^f cpm	197 ± 82	435 ± 240^e cpm	208 ± 29^d cpm	423 ± 31	186 ± 27	162 ± 41	not detectable	not detectable	2.6 ± 0.92		8/32 (25%)	47	79	88	6.9±2.5		
porcine insulin [oral porcine insulin]																					onset and incidence of diabetes (NOD mouse): delayed the onset and reduced the incidence of diabetes
proinsulin														significantly delayed the onset and decreased the incidence of diabetes						more effective than insulin	
proinsulin peptide 24-36 (AFVNQHLCGSHLV; pro-form; UniProt P01308 24-36, looked up, fragment) [peptide fragment of proinsulin, amino acids 24-36, applied intranasally at 1-4 mg/ml]														significantly delayed the onset and decreased the incidence of diabetes						more effective than insulin	adoptive transfer of diabetes by splenocytes from diabetic mice (male NOD mice; whole splenocytes, and splenocytes depleted of CD8 but not CD4 T cells, from female mice given a single intranasal dose at 28 days, taken at 56 days): significantly suppressed the adoptive transfer of diabetes
